Data from the supplement of paper PMC11451515.

Columns and labels:
Details in all cases: 48 h
SEM cells [1] = test: cell viability relative to DMSO control; higher = less cytotoxic
Method in brief: (§1)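 NOMO1 or SEM (500 cells/well) or P12-Ichikawa (1000 cells/well) leukemia cells were adapted for at least four passages in each medium. They were seeded in 1536-well plates (5 μl) and pin-dosed with library compounds in DMSO over an 11-point threefold series, 47 μM to 0.79 nM. CellTiter-Glo One luminescence was read after 48 h at 37°C. Viability is the per-plate percentage relative to DMSO wells, with cell-free wells as background.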

P12-Ichikawa [2] = test: as above
Method in brief: as §1

NOMO1 [3] = test: as above
Method in brief: as §1

SEM cells [4] = test: AUC of viability dose-response curve (% viability x log10 dose units); higher = less sensitive
Method in brief: (§2)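 Leukemia cells adapted to each medium were seeded in 1536-well plates (500 or 1000 cells/well). They were dosed with library compounds in DMSO at 11 threefold doses, 47 μM to 0.79 nM, for 48 h at 37°C. CellTiter-Glo One luminescence was normalised per plate to DMSO and cell-free wells. Area under the curve was integrated by trapezoidal rule over log10 doses on a four-parameter log-logistic fit; curves exceeding full viability were scaled and curves failing quality control removed.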

P12-Ichikawa [5] = test: as above
Method in brief: as §2

NOMO1 [6] = test: as above
Method in brief: as §2

CC(C)=CC[C@@H](O)C/1=C/C(=O)C2=C(O)C=CC(=C2C1=O)O
cell viability [%]
Details	NOMO1 [3]	P12-Ichikawa [2]	SEM cells [1]
HPLM + 10% dialyzed FBS, 0.000781 µM	91.5	90.8	76.2
HPLM + 10% dialyzed FBS, 0.00234 µM	108	107	90.2
HPLM + 10% dialyzed FBS, 0.00702 µM	95.5	111	89.5
HPLM + 10% dialyzed FBS, 0.0211 µM	100	108	96
HPLM + 10% dialyzed FBS, 0.0632 µM	105	109	98.3
HPLM + 10% dialyzed FBS, 0.19 µM	113	109	97.7
HPLM + 10% dialyzed FBS, 0.569 µM	123	118	93.5
HPLM + 10% dialyzed FBS, 1.71 µM	85.1	111	91.4
HPLM + 10% dialyzed FBS, 5.12 µM	33.5	104	98.7
HPLM + 10% dialyzed FBS, 15.4 µM	25.8	17.1	119
HPLM + 10% dialyzed FBS, 46.1 µM	17	8.56	77.4
RPMI 5 mM glucose + 10% FBS, 0.000781 µM	93.7	93.6	82.4
RPMI 5 mM glucose + 10% FBS, 0.00234 µM	105	113	76.6
RPMI 5 mM glucose + 10% FBS, 0.00702 µM	102	114	79.2
RPMI 5 mM glucose + 10% FBS, 0.0211 µM	102	120	81.9
RPMI 5 mM glucose + 10% FBS, 0.0632 µM	95.7	120	93.2
RPMI 5 mM glucose + 10% FBS, 0.19 µM	96	114	98.3
RPMI 5 mM glucose + 10% FBS, 0.569 µM	108	120	92.3
RPMI 5 mM glucose + 10% FBS, 1.71 µM	52.6	106	105
RPMI 5 mM glucose + 10% FBS, 5.12 µM	17.3	108	86.2
RPMI 5 mM glucose + 10% FBS, 15.4 µM	17.9	22.9	77.8
RPMI 5 mM glucose + 10% FBS, 46.1 µM	12.2	8.56	47.1
RPMI 5 mM glucose + 10% dialyzed FBS, 0.000781 µM	88.2	92.7	72.2
RPMI 5 mM glucose + 10% dialyzed FBS, 0.00234 µM	92.6	106	87.8
RPMI 5 mM glucose + 10% dialyzed FBS, 0.00702 µM	93	108	85.8
RPMI 5 mM glucose + 10% dialyzed FBS, 0.0211 µM	113	108	95.5
RPMI 5 mM glucose + 10% dialyzed FBS, 0.0632 µM	98.1	113	99
RPMI 5 mM glucose + 10% dialyzed FBS, 0.19 µM	109	107	104
RPMI 5 mM glucose + 10% dialyzed FBS, 0.569 µM	107	118	111
RPMI 5 mM glucose + 10% dialyzed FBS, 1.71 µM	70.2	117	117
RPMI 5 mM glucose + 10% dialyzed FBS, 5.12 µM	24.5	113	87.4
RPMI 5 mM glucose + 10% dialyzed FBS, 15.4 µM	15.3	55.2	80.4
RPMI 5 mM glucose + 10% dialyzed FBS, 46.1 µM	21.2	21	21.6

AUC of viability dose-response curve
Details	NOMO1 [6]	P12-Ichikawa [5]	SEM cells [4]
HPLM + 10% dialyzed FBS	379	413	449
RPMI 5 mM glucose + 10% FBS	354	415	407
RPMI 5 mM glucose + 10% dialyzed FBS	368	434	431

S=P(N1CC1)(N1CC1)N1CC1
cell viability [%]
Details	NOMO1 [3]	P12-Ichikawa [2]	SEM cells [1]
HPLM + 10% dialyzed FBS, 0.000781 µM	107	110	102
HPLM + 10% dialyzed FBS, 0.00234 µM	105	106	106
HPLM + 10% dialyzed FBS, 0.00702 µM	99	113	110
HPLM + 10% dialyzed FBS, 0.0211 µM	104	107	96.7
HPLM + 10% dialyzed FBS, 0.0632 µM	98.5	112	104
HPLM + 10% dialyzed FBS, 0.19 µM	98.6	105	107
HPLM + 10% dialyzed FBS, 0.569 µM	110	108	103
HPLM + 10% dialyzed FBS, 1.71 µM	97.3	97.4	98.5
HPLM + 10% dialyzed FBS, 5.12 µM	92.4	88.5	85.1
HPLM + 10% dialyzed FBS, 15.4 µM	104	99.4	93.3
HPLM + 10% dialyzed FBS, 46.1 µM	62.6	85.3	39
RPMI 5 mM glucose + 10% FBS, 0.000781 µM	92.8	98.3	–
RPMI 5 mM glucose + 10% FBS, 0.00234 µM	102	99	–
RPMI 5 mM glucose + 10% FBS, 0.00702 µM	95.7	106	–
RPMI 5 mM glucose + 10% FBS, 0.0211 µM	96.4	102	–
RPMI 5 mM glucose + 10% FBS, 0.0632 µM	103	99.8	–
RPMI 5 mM glucose + 10% FBS, 0.19 µM	95.7	102	–
RPMI 5 mM glucose + 10% FBS, 0.569 µM	92.7	108	–
RPMI 5 mM glucose + 10% FBS, 1.71 µM	95.5	104	–
RPMI 5 mM glucose + 10% FBS, 5.12 µM	101	104	–
RPMI 5 mM glucose + 10% FBS, 15.4 µM	90.2	94.9	–
RPMI 5 mM glucose + 10% FBS, 46.1 µM	89.8	88.2	–
RPMI 5 mM glucose + 10% dialyzed FBS, 0.000781 µM	101	99.6	99.6
RPMI 5 mM glucose + 10% dialyzed FBS, 0.00234 µM	105	108	108
RPMI 5 mM glucose + 10% dialyzed FBS, 0.00702 µM	95.4	103	106
RPMI 5 mM glucose + 10% dialyzed FBS, 0.0211 µM	91.4	91.7	105
RPMI 5 mM glucose + 10% dialyzed FBS, 0.0632 µM	104	101	105
RPMI 5 mM glucose + 10% dialyzed FBS, 0.19 µM	99.6	101	107
RPMI 5 mM glucose + 10% dialyzed FBS, 0.569 µM	116	96.2	93.6
RPMI 5 mM glucose + 10% dialyzed FBS, 1.71 µM	98.7	93.1	90.4
RPMI 5 mM glucose + 10% dialyzed FBS, 5.12 µM	95.5	86.9	95.1
RPMI 5 mM glucose + 10% dialyzed FBS, 15.4 µM	98.3	89.9	78.5
RPMI 5 mM glucose + 10% dialyzed FBS, 46.1 µM	92.4	76.3	41.5

AUC of viability dose-response curve
Details	NOMO1 [6]	P12-Ichikawa [5]	SEM cells [4]
HPLM + 10% dialyzed FBS	468	452	455
RPMI 5 mM glucose + 10% FBS	458	470	446
RPMI 5 mM glucose + 10% dialyzed FBS	468	448	441

N=C(NCCCCCCNC(=N)NC(=N)Nc1ccc(Cl)cc1)NC(=N)Nc1ccc(Cl)cc1
cell viability [%]
Details	NOMO1 [3]	P12-Ichikawa [2]	SEM cells [1]
HPLM + 10% dialyzed FBS, 0.000781 µM	82	89.4	95.6
HPLM + 10% dialyzed FBS, 0.00234 µM	88.2	95.2	104
HPLM + 10% dialyzed FBS, 0.00702 µM	100	93	95.6
HPLM + 10% dialyzed FBS, 0.0211 µM	90.4	95.7	95.2
HPLM + 10% dialyzed FBS, 0.0632 µM	106	92.6	101
HPLM + 10% dialyzed FBS, 0.19 µM	111	93.3	104
HPLM + 10% dialyzed FBS, 0.569 µM	105	95.2	104
HPLM + 10% dialyzed FBS, 1.71 µM	113	101	93.9
HPLM + 10% dialyzed FBS, 5.12 µM	89	92.9	92.2
HPLM + 10% dialyzed FBS, 15.4 µM	87.6	97.9	86.8
HPLM + 10% dialyzed FBS, 46.1 µM	56.5	93.8	52
RPMI 5 mM glucose + 10% FBS, 0.000781 µM	75.4	83.8	98.4
RPMI 5 mM glucose + 10% FBS, 0.00234 µM	92.9	82.8	102
RPMI 5 mM glucose + 10% FBS, 0.00702 µM	79.1	92.1	104
RPMI 5 mM glucose + 10% FBS, 0.0211 µM	96.3	90.1	97.5
RPMI 5 mM glucose + 10% FBS, 0.0632 µM	96.1	93.6	93.4
RPMI 5 mM glucose + 10% FBS, 0.19 µM	85.5	97.6	107
RPMI 5 mM glucose + 10% FBS, 0.569 µM	93.2	91.4	96.4
RPMI 5 mM glucose + 10% FBS, 1.71 µM	88.5	80.2	104
RPMI 5 mM glucose + 10% FBS, 5.12 µM	91.1	95.1	107
RPMI 5 mM glucose + 10% FBS, 15.4 µM	87.4	81.2	97.6
RPMI 5 mM glucose + 10% FBS, 46.1 µM	30.9	56.3	68
RPMI 5 mM glucose + 10% dialyzed FBS, 0.000781 µM	79.5	85.4	83.6
RPMI 5 mM glucose + 10% dialyzed FBS, 0.00234 µM	88.9	85.3	92.9
RPMI 5 mM glucose + 10% dialyzed FBS, 0.00702 µM	90.6	90.4	93.4
RPMI 5 mM glucose + 10% dialyzed FBS, 0.0211 µM	90.5	86.9	87.9
RPMI 5 mM glucose + 10% dialyzed FBS, 0.0632 µM	105	94.1	89.3
RPMI 5 mM glucose + 10% dialyzed FBS, 0.19 µM	103	95.5	96.7
RPMI 5 mM glucose + 10% dialyzed FBS, 0.569 µM	101	87.5	90.9
RPMI 5 mM glucose + 10% dialyzed FBS, 1.71 µM	105	88.1	85.8
RPMI 5 mM glucose + 10% dialyzed FBS, 5.12 µM	100	86	103
RPMI 5 mM glucose + 10% dialyzed FBS, 15.4 µM	85.6	89.3	80.9
RPMI 5 mM glucose + 10% dialyzed FBS, 46.1 µM	41.5	70.3	42.1

AUC of viability dose-response curve
Details	NOMO1 [6]	P12-Ichikawa [5]	SEM cells [4]
HPLM + 10% dialyzed FBS	454	452	453
RPMI 5 mM glucose + 10% FBS	409	416	468
RPMI 5 mM glucose + 10% dialyzed FBS	440	419	420
